Consider 2 compounds from patent publication US20240327406A1, “POTASSIUM CHANNEL MODULATORS” (Autifony Therapeutics Limited, priority 2021, published 2024).

Marks after values point to notes of the source that are not given here.

In data set [1] the target is T1, Kv3.1 (Homo sapiens, UniProt P48547).
T1 sequence (P48547 1-511): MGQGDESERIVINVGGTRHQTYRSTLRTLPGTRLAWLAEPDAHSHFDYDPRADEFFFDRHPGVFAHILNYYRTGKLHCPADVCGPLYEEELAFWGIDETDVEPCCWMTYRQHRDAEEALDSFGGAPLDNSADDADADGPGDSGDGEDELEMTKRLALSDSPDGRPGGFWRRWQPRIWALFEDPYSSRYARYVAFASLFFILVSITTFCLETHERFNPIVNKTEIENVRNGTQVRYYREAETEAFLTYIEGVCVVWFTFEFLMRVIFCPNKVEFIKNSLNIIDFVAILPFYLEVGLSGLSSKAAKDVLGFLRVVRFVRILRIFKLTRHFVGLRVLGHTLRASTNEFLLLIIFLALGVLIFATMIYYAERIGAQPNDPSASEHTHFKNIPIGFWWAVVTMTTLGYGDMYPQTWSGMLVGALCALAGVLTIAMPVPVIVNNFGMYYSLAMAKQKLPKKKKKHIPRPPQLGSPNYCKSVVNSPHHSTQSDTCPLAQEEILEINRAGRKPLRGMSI
The note with it: Table 5, RE12 and RE13; based on EC50 value as reported in WO2021214090; cited from earlier work.

Data set [2] can be described thus: In vitro metabolic stability, human liver microsomes. Format: in vitro ADME. To be noted: CLint expressed as mL/min/g liver. The procedure: (§1) The objective of this study was to determine metabolic stability of test items in rat and human liver microsomes. Verapamil and dextromethorphan were used as positive controls for microsomal incubation.
(§2) Incubation medium was prepared by combining 11.2 mL of potassium phosphate monobasic and 38.8 mL of potassium phosphate dibasic, diluted to 1 L with water. Cryopreserved microsomes were thawed and kept on ice until use. Microsomes were then diluted in incubation to a protein concentration of 0.56 mg/mL. […]
(§3) NADPH regenerating system solution was prepared by dissolving 1.7 mg of NADP, 7.8 mg of G6P and 6 units of G6P-Dehydrogenase in 1 mL of 2% sodium bicarbonate solution (prepared by dissolving 20 g of NaHCO3 in 1 L of water).
(§4) Test compounds were separately dissolved in DMF to obtain 10 mM stock solutions that were further diluted in water/acetonitrile 50/50 (v/v) to obtain the corresponding 50 μM working solutions. Verapamil and dextromethorphan were dissolved in DMF in order to obtain a 10 mM verapamil solution and 10 mM dextromethorphan solution. These solutions were then diluted in the incubation medium in order to obtain a 50 μM verapamil working solution and a 50 μM dextromethorphan working solution.
(§5) 800 μL-aliquots of NADPH regenerating system were pre-warmed at 37° C. for 5 minutes. 5 μL of 50 µM test compounds, verapamil or dextromethorphan were added to 445 μL of the 0.56 mg/mL microsomes solution and the incubation mixture was pre-warmed in a 96 deep well 2 mL plate (incubation plate) at 37° C. for 5 minutes. The incubation reactions were initiated by adding 50 μL of pre-warmed NADPH regenerating system to the incubation mixtures. 50 μL aliquots were taken from incubation mixtures at: 0, 3, 6, 9, 15, and 30 minutes and the reactions were stopped by adding 100 μL of aceronitrile with the corresponding internal standard. Samples were then diluted with 120 μL of water (final organic solvent percentage at 37%) and centrifuged at 3000 rpm for 10 minutes, prior the LC-MS/MS analysis.
(§6) Metabolic stability was calculated from the peak area ratio of the remaining test compound with internal standard versus time. The intrinsic clearance (CLint) was determined from the first order elimination constant k (min^−1) (obtained from GraphPad by plotting the natural logarithm of the peak area ratio of the remaining test item with internal standard versus time), using the actual volume of the incubation V (mL), the amount of hepatocytes in the incubation M (million cells) and the hepatocellularity number per a liver Hn (120 for human).

Data set [3] in a line: Determination of blood and brain tissue binding (equilibrium dialysis). Format: in vitro ADME, Sprague Dawley rat. To be noted: Sprague Dawley, 5 h at 37° C.; for fraction unbound at 5 h, 5 micromolar: 1:2 (w/v) in artificial CSF, rat brain homogenate, read-out: % FU Brain; for fraction unbound at 5 h, 0.5 micromolar: whole blood diluted 1:1 (v/v) with isotonic phosphate buffer, rat whole blood, read-out: % FU Blood. The procedure:
Sprague Dawley rat whole blood, collected on the week of the experiment using K3-EDTA as an anti-coagulant, is diluted with isotonic phosphate buffer 1:1 (v/v). Sprague Dawley rat whole brain, stored frozen at −20° C., is thawed and homogenised in artificial cerebrospinal fluid (CSF) 1:2 (w/v).
An appropriate amount of test compound is dissolved in DMSO to give a 10 millimolar solution. Further dilutions, to obtain a 166.7 micromolar working solution are then prepared using 50% acetonitrile in MilliQ water. This working solution is used to spike the blood to obtain a final concentration of 0.5 micromolar in whole blood. Similarly, the working solution is used to spike brain samples to obtain a final concentration of 5 micromolar in whole brain. From these spiked blood and brain preparations, control samples (n=3), are immediately extracted and used to calculate the initial recovery of the test items.
150 microL of compound-free buffer (isotonic phosphate buffer for blood or artificial CSF buffer for brain) is dispensed in one half-well and 150 microL of spiked matrix (blood or brain) is loaded in the other half-well, with the two halves separated by a semi-permeable membrane. After an equilibration period of 5 h at 37° C., 50 microL of dialysed matrix (blood or brain) is added to 50 microL of corresponding compound-free buffer, and vice-versa for buffer, such that the volume of buffer to matrix (blood or brain) remains the same. Samples are then extracted by protein precipitation with 300 microL of acetonitrile containing rolipram (control for positive ionization mode) or diclofenac (control for negative ionization mode) as internal standards and centrifuged for 10 min at 3000 rpm. Supernatants are collected (100 microL), diluted with 27% AcN in MilliQ water (200 microL) and then injected into an HPLC-MS/MS or UPLC-MS/MS system to determine the concentration of test compound present.
Blood and brain tissue binding are then determined using the following formulas:
where Afu=apparent fraction unbound; Buffer=analyte/internal standard ratio determined in the buffer compartment; Blood=analyte/internal standard ratio determined in the blood compartment; Brain=analyte/internal standard ratio determined in the brain compartment.
where: fucr=Fraction unbound corrected; D=matrix dilution factor (D=2 for blood and D=3 for brain). then: […]

Data set [4] can be described thus: In vitro metabolic stability, rat liver microsomes. Format: in vitro ADME. The note with it: CLint expressed as mL/min/g liver. On the procedure: as §1, §2, §3, §4, §5, §6

In the case of `Cc1ccc(Oc2ccc(-n3c(=O)[nH]c4cnccc43)cn2)cc1OC(F)(F)F` [RE13, reference compound], the “Kv3.1 pEC50” value in data set [1] is listed as 5.6**. Besides, the Cli human in data set [2] is 0.6 mL/min/g. In data set [3], the fraction unbound at 5 h, 5 micromolar was 0.005 and the fraction unbound at 5 h, 0.5 micromolar stood at 0.013. This compound also yielded a Cli rat in data set [4] of 1.3 mL/min/g.
As for `Cc1ccc(Oc2ccc(-n3c(=O)[nH]c4cncnc43)cn2)cc1OC(F)(F)F` [RE12, reference compound], the “Kv3.1 pEC50” value in data set [1] is 5.2*. Besides, the Cli human in data set [2] worked out at 1.7 mL/min/g. In data set [3], the fraction unbound at 5 h, 5 micromolar is 0.006 and the fraction unbound at 5 h, 0.5 micromolar was 0.007. This compound also gave a Cli rat in data set [4] of 1.5 mL/min/g.
